# Structures can show the parent of a compound that is named as a salt. Activity calls are given as the source filed them. The rule behind the calls is not given here.
# T1: Hexokinase-2 (Homo sapiens, UniProt P52789)
# T1 sequence (P52789 whole entry): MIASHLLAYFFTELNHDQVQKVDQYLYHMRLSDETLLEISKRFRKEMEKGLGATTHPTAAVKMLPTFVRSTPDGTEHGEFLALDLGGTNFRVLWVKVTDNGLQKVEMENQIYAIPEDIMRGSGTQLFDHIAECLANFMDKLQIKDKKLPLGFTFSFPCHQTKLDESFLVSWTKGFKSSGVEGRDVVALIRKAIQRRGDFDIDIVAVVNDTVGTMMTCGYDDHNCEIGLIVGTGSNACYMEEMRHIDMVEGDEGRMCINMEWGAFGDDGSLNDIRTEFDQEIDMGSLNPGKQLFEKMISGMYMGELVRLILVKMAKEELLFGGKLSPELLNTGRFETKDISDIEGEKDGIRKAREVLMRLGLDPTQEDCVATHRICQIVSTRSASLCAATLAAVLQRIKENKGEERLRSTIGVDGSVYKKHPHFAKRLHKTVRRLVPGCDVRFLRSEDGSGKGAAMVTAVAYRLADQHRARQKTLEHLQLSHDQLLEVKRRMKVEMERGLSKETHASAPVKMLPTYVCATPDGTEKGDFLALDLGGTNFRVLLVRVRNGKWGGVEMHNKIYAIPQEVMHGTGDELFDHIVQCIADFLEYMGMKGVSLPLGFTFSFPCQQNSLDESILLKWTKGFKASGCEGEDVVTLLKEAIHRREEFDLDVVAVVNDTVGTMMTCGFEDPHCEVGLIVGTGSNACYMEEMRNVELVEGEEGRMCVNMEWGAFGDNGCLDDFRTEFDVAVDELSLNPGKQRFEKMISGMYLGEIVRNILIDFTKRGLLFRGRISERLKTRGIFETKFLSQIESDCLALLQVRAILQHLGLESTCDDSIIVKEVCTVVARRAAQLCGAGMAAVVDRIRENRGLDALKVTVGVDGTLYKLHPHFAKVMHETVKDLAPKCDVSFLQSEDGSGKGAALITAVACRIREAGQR
# B1: Hexokinase-2 (Homo sapiens), P52789 (protein)
# chain: T1 sequence (P52789 whole entry)
# Tests used:
# [1] = test system: HepG2; test: Cytotoxicity against human HepG2 cells assessed as reduction in cell viability by MTT assay; type: functional, cell-based
# [2] = test system: SMMC-7721; test: Cytotoxicity against human SMMC7721 cells assessed as reduction in cell viability by MTT assay; type: functional, cell-based
# [3] = test system: L02; test: Cytotoxicity against human LO2 cells assessed as reduction in cell viability by MTT assay; type: ADME, cell-based
# [4] = test system: PLC-PRF-5; test: Cytotoxicity against human PLC/PRF/5 cells assessed as reduction in cell viability by MTT assay; type: functional, cell-based
# [5] = target: T1, Hexokinase-2; test: Inhibition of HK2 (unknown origin) using glucose-6-phosphate dehydrogenase as substrate preincubated for 10 mins followed by substrate addition
# [6] = test system: SMMC-7721; test: Induction of apoptosis in human SMMC7721 cells assessed as chromatin […] at 0.5 to 8 uM measured after 24 hrs by DAPI staining based fluorescence microscopic analysis; type: functional, cell-based
# [7] = test system: SMMC-7721; test: Induction of apoptosis in human SMMC7721 cells assessed as formation of apoptotic bodies at 0.5 to 8 uM measured after 24 hrs by DAPI staining based fluorescence microscopic analysis; type: functional, cell-based
# [8] = compound: COC1=C(c2ccccc2)C(=O)[C@@](O)(CC(C)=O)C(c2ccccc2)=C1; test: (§1) Competitive-inhibition of HK2 (unknown origin) assessed as Km at 10 uM using varying levels of glucose-6-phosphate dehydrogenase as substrate by Lineweaver-burk plot analysis; details: Homo sapiens
# [9] = compound: CC1(C)N=C2C(c3ccccc3)=CC(=O)C(c3ccccc3)=C2O1; test: as §1; details: Homo sapiens
# [10] = compound: COc1cc(-c2ccccc2)c(=O)c(C(C)=O)c(O)c1-c1ccccc1; test: as §1; details: Homo sapiens
Molecule,IC50 [1] [µM],IC50 [2] [µM],IC50 [3] [µM],IC50 [4] [µM],IC50 [5] [µM],Activity [6],Activity [7],Km [8] [µM],Km [9] [µM],Km [10] [µM]
COc1cccc2c1C(=O)c1c(O)c3c(c(O)c1C2=O)C[C@@](O)(C(=O)CO)C[C@@H]3O[C@H]1C[C@H](N)[C@H](O)[C@H](C)O1 [DOXORUBICIN HYDROCHLORIDE],2.6,1.1,13.5,1.9,,,,,,
COc1cc(-c2ccccc2)c(=O)c(C(C)=O)c(O)c1-c1ccccc1,9.5,10.3,17.8,7.1,31.2,,,,,
CC1(C)N=C2C(c3ccccc3)=CC(=O)C(c3ccccc3)=C2O1,12.3,4.9,17.6,11.6,34.6,,,,,
COC1=C(c2ccccc2)C(=O)[C@@](O)(CC(C)=O)C(c2ccccc2)=C1,2.3,2.9,11.2,1.9,9.8,Active,Active,,,
O=c1[nH]cc(F)c(=O)[nH]1 [FLUOROURACIL],3.6,2.5,10.6,2.8,,,,,,
B1,,,,,,,,430,290,310
